In patent US20140066385A1, “METHOD FOR TREATING CANCER BY COMBINED USE OF DRUGS” (Astellas Pharma Inc., priority 2011, published 2014):

Legend:
[1] = test system: human gastric cancer (MKN-28); assay: Example 5: FK330 with paclitaxel in MKN-28 tumor-bearing mice; assay type: in vivo, nude mice; conditions: for tumor volume on the last day of experiment: MKN-28, Day 84, mean±SEM
Procedure: (§1) Preparation of the test substances was carried out in the same manner as in Example 2.
(§2) Human gastric cancer-derived NCI-N87 (CRL-5822) was obtained from American Type Culture Collection (VA, USA), MKN-28 (JCRB0253) was obtained from Health Science Research Resources Bank (HSRRB), and AZ-521 (RCB2087) was obtained from Riken BRC. NCI-N87 and MKN-28 cells were cultured under the conditions of 37° C. and 5% CO2 by using RPMI1640 medium containing 10% heat-inactivated fetal bovine serum (FBS), and AZ-521 cells were cultured under the conditions of 37° C. and 5% CO2 by using DMEM medium containing 10% heat-inactivated FBS. The cells were harvested with trypsin and were suspended in PBS at 6×10^7 cells/mL, and the suspension was mixed with an equal amount of Matrigel (trade name) Basement Membrane Matrix (manufactured by Becton Dickinson Co., Bedford, Mass., USA).
(§3) Five-week old male nude mice (CAnN Cg-Foxn1nu/CrlCrlj(nu/nu)) were purchased from Charles River Laboratories Japan, Inc. (Japan, Kanagawa). The animals were raised under specific pathogen-free (SPF) conditions throughout the test period by feeding standard feedstuff and drinking water. The cultured cells were subcutaneously inoculated into the dorsal region of the nude mice at a concentration of 3×10^6 cells/0.1 mL/mouse. […]
(§4) Every 2 to 4 days, the body weight and the tumor diameters, determined by using a digital caliper, were measured. The tumor volume was calculated from the calculation formula for ellipsoid volume of (major axis×[minor axis]^2×0.52).
(§5) The results are expressed as the mean value (Mean)±standard error (SEM). Using the actual measured values of the tumor volume at each measurement time point, an unpaired statistical test (Student's t-test) of the difference between two groups was carried out between a single administration group and a combined use group. […]

[2] = test system: human gastric cancer (NCI-N87); assay: Example 5: FK330 with paclitaxel in NCI-N87 tumor-bearing mice; assay type: in vivo, nude mice; conditions: for tumor volume on the last day of experiment: NCI-N87, Day 56, mean±SEM
Procedure: as §1, §2, §3, §4, §5

[3] = combined use group paclitaxel + FK330 100 mg/kg bid

O=C(/C=C/c1ccc(Cl)cc1)N[C@@H](Cc1ccccn1)C(=O)NCC(=O)N1CCC(Oc2cc(C(F)(F)F)ncn2)CC1 [FK330, N^2-[(2E)-3-(4-chlorophenyl)-2-propenoyl]-N-[2-oxo-2-(4-{[6-(trifluoromethyl)pyrimidin-4-yl]oxy}piperidin-1-yl)ethyl]-3-pyridin-2-yl-L-alaninamide]
tumor volume on the last day of experiment [1, 3]: 164.8±18.5 mm^3
tumor volume decrease compared with the paclitaxel-only group ([1]; MKN-28, last day, FK330 100 mg/kg bid + paclitaxel, P=0.08): 63.7%
tumor volume on the last day of experiment [2, 3]: 223.9±85.1 mm^3
tumor volume decrease compared with the paclitaxel-only group ([2]; NCI-N87, last day, FK330 100 mg/kg bid + paclitaxel, P<0.03): 54.5%

CC(=O)O[C@H]1C(=O)[C@@]2(C)[C@H]([C@H](OC(=O)c3ccccc3)[C@]3(O)C[C@H](OC(=O)[C@H](O)[C@@H](NC(=O)c4ccccc4)c4ccccc4)C(C)=C1C3(C)C)[C@]1(OC(C)=O)CO[C@@H]1C[C@@H]2O [paclitaxel, reference compound]
tumor volume on the last day of experiment ([1]; paclitaxel-only group 10 mg/kg/day i.v., three cycles): 454.1±147.5 mm^3
tumor volume on the last day of experiment ([2]; paclitaxel-only group 10 mg/kg/day i.v., two cycles): 492.0±48.5 mm^3
